# Experimental data from patent publication US7064116B2, “GABAA modulating neurosteroids” (priority 2000, dated 2006).
# How the values were obtained:
# [1] = target: benzodiazepine site of the GABAA/BZ/chloride channel complex (rat brain GBR enriched synaptosomal preparation); experiment: Enhancement of [3H]-Flunitrazepam binding to the benzodiazepine site in rat brain synaptosomal membranes; conditions: for EC50: enhancement of 1 nM [3H]-Flunitrazepam binding, 40 μg rat brain synaptosomal membrane, 30° C., 30 min; for Maximum stimulation: maximum stimulation of 1 nM [3H]-Flunitrazepam specific binding, normalized to control without test compound
Compound,melting point,EC50 [1],Maximum stimulation [1]
"C#CC(OC)[C@H]1CC[C@H]2[C@@H]3CC[C@H]4C[C@H](O)CC[C@]4(C)[C@H]3CC[C@]12C (mixture of isomers) [17β-(1-methoxy-2-propynyl)-5α-androstan-3α-ol (mixture of C-20 epimers), 17β-(1-methoxy-2-propynyl)-5α-androstan-3α-ol]",161 to 163 °C,4.48 nM,18.1%
CC(O)C#C[C@H]1CC[C@H]2[C@@H]3CC[C@H]4C[C@H](O)CC[C@]4(C)[C@H]3CC[C@]12C (stereo partly drawn) [17β-(3-hydroxy-1-butynyl)-5α-androstane-3α-ol],169 to 171 °C,inactive,–
"C[C@]12CC[C@@H](N=[N+]=[N-])C[C@@H]1CC[C@@H]1[C@@H]2CC[C@]2(C)[C@@H](C(=O)CN=[N+]=[N-])CC[C@@H]12 [3α,21-di-azido-5α-pregnan-20-one]",133 to 135 °C,314 nM,16.4%
COC(=O)C#C[C@H]1CC[C@H]2[C@@H]3CC[C@H]4C[C@H](O)CC[C@]4(C)[C@H]3CC[C@]12C [17β-(2-methoxycarbonylethynyl)-5α-androstane-3α-ol],135 to 137 °C,515 nM,55.6%
"CC(=O)[C@H]1CC[C@H]2[C@@H]3CC[C@H]4C[C@H](O)CC[C@]4(C)[C@H]3CC[C@]12C [3α-hydroxy-5α-pregnan-20-one, reference compound]",–,212 nM,36%
CC(=O)C#C[C@H]1CC[C@H]2[C@@H]3CC[C@H]4C[C@H](O)CC[C@]4(C)[C@H]3CC[C@]12C [17β-(3-oxo-1-butynyl)-5α-androstan-3α-ol],148 to 150 °C,inactive,–
C[C@]12CC[C@@H](O)C[C@@H]1CC[C@@H]1[C@@H]2CC[C@]2(C)[C@@H](C#CBr)CC[C@@H]12 [17β-(2-bromoethynyl)-5α-androstane-3α-ol],165 to 167 °C,326 nM,72.7%
"C=C=CC(O)[C@H]1CC[C@H]2[C@@H]3CC[C@H]4CC(O)CC[C@]4(C)[C@H]3CC[C@]12C (mixture of isomers) [17β-(1-hydroxy-2,3-butadienyl)-5α-androstane-3ol (mixture of C-20 epimers), 17β-(1-hydroxy-2,3-butadienyl)-5α-androstane-3-ol]",174 to 177 °C,5.9 nM,45.8%
"C#CC(O)[C@H]1CC[C@H]2[C@@H]3CC[C@H]4CC(O)CC[C@]4(C)[C@H]3CC[C@]12C (single isomer, unassigned) [17β-(1-hydroxy-2-propynyl)-5α-androstan-3-ol (less polar C-20 epimer), 17β-(1-hydroxy-2-propynyl)-5α-androstan-3-ol]",–,inactive,–
"CC(=O)[C@H]1CC[C@H]2[C@@H]3CC[C@H]4C[C@H](N=[N+]=[N-])CC[C@]4(C)[C@H]3CC[C@]12C [3α-azido-5α-pregnan-20-one, 3α-Azido-5α-pregnan-20-one]",159 to 162 °C,inactive,–
C[C@]12CC[C@@H](N=[N+]=[N-])C[C@@H]1CC[C@@H]1[C@@H]2CC[C@]2(C)[C@@H](C(=O)CBr)CC[C@@H]12,108 to 110 °C,–,–
"COc1ccc(C#CC(O)[C@H]2CC[C@H]3[C@@H]4CC[C@H]5C[C@H](O)CC[C@]5(C)[C@H]4CC[C@]23C)cc1 (single isomer, unassigned) [17β-[1-hydroxy-3-(4-methoxyphenyl)-2-propynyl]-5α-androstan-3α-ol]",–,36.3 nM,23.3%
Cc1ccc(C#C[C@H]2CC[C@H]3[C@@H]4CC[C@H]5C[C@H](O)CC[C@]5(C)[C@H]4CC[C@]23C)cc1 [17β-[2-(4-tolyl)ethynyl]-5α-androstane-3α-ol],178 to 180 °C,2380 nM,52.6%
